Patent US9868707B2, “Small molecule agonists of neurotensin receptor 1” (SANFORD-BURNHAM MEDICAL RESEARCH INSTITUTE, priority 2012, dated 2018)

Assays:
[1] = Parallel Artificial Membrane Permeability Assay (PAMPA); type: in vitro ADME
Method: The PAMPA in a 96-well sandwich plate format was used to determine the capacity of compounds to cross a model of cell membrane by passive diffusion (Avdeef, A., Nielsen, P. E., and Tsinman, O. 2004. PAMPA—a drug absorption in vitro model 11. Matching the in vivo unstirred water layer thickness by individual-well stirring in microtitre plates. Eur J Pharm Sci 22:365-374). The effective permeability of the compound was measured at an initial concentration of 50 μM. The permeability measurements were performed using a cosolvent buffer system (20% ACN/aqueous buffer) solution (pION Inc, Woburn Mass.) prepared according to the manufacturer's instructions. The compound was dissolved in buffer solution and ACN (20%, cosolvent) to the desired concentration (50 μM). The PAMPA sandwich plate consisting of a donor bottom plate and an acceptor filter plate was used. The donor wells contained the compounds in 190 μl system solution, and magnetic stir bars. The filter on the bottom of each acceptor well was coated with GIT-0 phospholipid solution (pION Inc) and filled with 200 μl of Acceptor Sink Buffer, pH 7.4 (pION Inc) containing surfactant. The permeation time was 30 min and moderate stirring (equivalent to 40 μm Aqueous Boundary Layer thickness) was applied using the Gut-Box™ (pION, Inc). After the permeation time, the sandwich was disassembled and the amount of compound present in both the donor and acceptor wells was measured by UV absorbance (250-498 nm) and compared to spectra obtained reference standards. Mass balance was used to determine the amount of material embedded in the membrane filter. The effective permeability, Pe, was calculated using the software PAMPA Evolution Plus, version 3.2 (pION Inc).

[2] = Plasma stability, mouse plasma; type: in vitro ADME
Method: Plasma stability was determined using previously published methods (Kerns, E. H., and Di, L. 2008. Drug-like Properties: Concepts, Structure Design and Methods. Oxford UK: Elsevier). Compound (1.0 μM) was incubated at 37° C. in human or mouse plasma (from blood of healthy donors collected on EDTA) diluted to 50% (v/v) with pH 7.4 isotonic phosphate buffer. At time 0 min and 180 min, aliquots were collected, added to acetonitrile to quench the reaction and precipitate plasma proteins. These samples were centrifuged and the supernatant analyzed by the LC/MS/MS method described above for the presence of the parental compound.

NTR1 = NTR1 (Homo sapiens, UniProt P30989); assay: NTR1 Ca2+ Flux dose response (ChanTest, CHO); type: cell-based; design: host or cells: CHO; settings: profiled by ChanTest
Method: The NTR1 Ca^2+ Flux assay was performed by ChanTest (Rockville, Md.). The assay used a CHO cell line, provided by ChanTest, which stably expressed the NTR1 receptor. The cells were grown and plated in Ham's F12 (11765) that was supplemented with fetal bovine serum (10437). Both were supplied by Gibco/Life Technologies (Carlsbad, Calif.). The DPBS (21-031CV) used in the assay was obtained from Cellgro/Mediatech and the G418 (ant-gn-1) was supplied by Invivogen. The Fluo-4 NW Dye (Invitrogen F36206) used to detect calcium mobilization was sourced by Invitrogen. […]
NTSR1 (NTR1) CHO cells are plated in 20 uL of assay media containing Ham's F12 supplemented with 10% fetal bovine serum and 0.4 mg/mL G418 at a concentration of 1.0×10^6 cells per mL into black, 384-well assay plates with clear bottoms using a Multidrop liquid handler. […] Following the incubation in the presence of dye, the assay is run on a Molecular Devices FlexStation-III using 494 excitation and 516 emission wavelengths set to read for 90 seconds with the addition at 18 seconds of 5 uL of 6× final concentration of test compounds and peptide control diluted in assay media containing 0.1% BSA and no more than 9% DMSO to yield a maximum final DMSO concentration of 1.5%. Percent activation is calculated based on the maximum response minus the minimum value over the time course relative to the neurotensin 1 control peptide at 100 pM. […]

Sequence of NTR1 (P30989 whole entry): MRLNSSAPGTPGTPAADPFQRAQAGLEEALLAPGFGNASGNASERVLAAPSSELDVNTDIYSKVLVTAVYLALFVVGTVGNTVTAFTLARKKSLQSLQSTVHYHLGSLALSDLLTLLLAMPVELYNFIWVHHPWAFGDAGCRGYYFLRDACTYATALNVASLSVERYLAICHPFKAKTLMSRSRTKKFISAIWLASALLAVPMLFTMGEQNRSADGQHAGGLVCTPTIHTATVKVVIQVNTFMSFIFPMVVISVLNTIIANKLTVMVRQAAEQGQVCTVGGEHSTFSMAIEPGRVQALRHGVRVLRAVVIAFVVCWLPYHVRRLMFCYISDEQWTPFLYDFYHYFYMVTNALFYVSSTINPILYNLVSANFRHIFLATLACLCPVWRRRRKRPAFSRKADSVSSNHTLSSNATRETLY

With `COc1cc2nc(C3CC3)nc(N3CCN(c4ccccc4OC)CC3)c2cc1OC` [Compound 315, 2-cyclopropyl-6,7-dimethoxy-4-(4-(2-methoxyphenyl)piperazin-1-yl)quinazoline] the “PAMPA Permeability, Pe” value ([1]; Donor pH 5.0, Acceptor pH 7.4) was 1163 ×10⁻⁶ cm/s, the “PAMPA Permeability, Pe” value ([1]; Donor pH 6.2, Acceptor pH 7.4) was 2145 ×10⁻⁶ cm/s and the “PAMPA Permeability, Pe” value ([1]; Donor pH 7.4, Acceptor pH 7.4) was 2093 ×10⁻⁶ cm/s. For the same compound, the “permeability in the PAMPA assay” value ([1]; with increasing pH of the donor compartment) was “high permeability”, the “Plasma Stability (% Remaining at 3 hrs)” value [2] was 99.55% and the “NTR1 Ca2+ Flux assay activity” value (NTR1) was “not active”.
